Results: patent US20200316062A1, “COMBINATIONS COMPRISING HISTONE DEACETYLASE INHIBITORS” (Karus Therapeutics Limited, priority 2016, published 2020)
Values belong to the compound of their own block, whether it stands above or below them.

What was measured:
RPMI8226 tumours = test: Tumour growth delay study in male SCID mice bearing RPMI8226 tumours; format: in vivo
[1] = Clinical signs and weight in the tumour growth delay study
acetylated tubulin = test: Western blot analysis of tumour tissue; format: in vivo, male SCID mice; details: tumour tissue removed from treated animals
[2] = system: PD-L1-expressing HT29 colorectal adenocarcinoma cells, primary stromal fibroblasts and PBMCs; test: Tumour microenvironment (TME) model system, study KRS018-01-b (DiscoverX); format: cell-based; details: 2.5 to 10 μM; SAg stimulation 48 h; dose-dependent
Description: Test compounds dissolved in DMSO were profiled in a commercially-available tumour microenvironment (TME) model system consisting of PD-L1-expressing HT29 colorectal adenocarcinoma cells, primary stromal fibroblasts and PBMCs in which immune cel responses are suppressed by the presence of the cancer cells. Co-cultured cells were exposed to 2.5, 5, 10, 20 μM of test compound or DMSO as a control and stimulated with SAg for 48 h. The activity profile in the co-culture system was determined using ELISA endpoint assays to detect modulation of protein markers relevant to immune tolerance, inflammation, angiogenesis and matrix remodelling, and sulforhodamine B (SRB) and alamar blue assays to measure the viability of adherent colorectal adenocarcinoma cells and fibroblasts, and PBMCs, respectively.

Recombinant human HDAC6 = molecular target: T1, Recombinant human HDAC6 (Homo sapiens, UniProt Q9UBN7); test: HDAC biochemical assay, acetylated AMC-labeled peptide substrate; details: read-out: IC50 (nM) HDAC 6
T1 construct: full length, MW=159 kDa; GST (N); made in house; host or cells: Sf9 insect cells (baculovirus)
T1 sequence (Q9UBN7 1-1215): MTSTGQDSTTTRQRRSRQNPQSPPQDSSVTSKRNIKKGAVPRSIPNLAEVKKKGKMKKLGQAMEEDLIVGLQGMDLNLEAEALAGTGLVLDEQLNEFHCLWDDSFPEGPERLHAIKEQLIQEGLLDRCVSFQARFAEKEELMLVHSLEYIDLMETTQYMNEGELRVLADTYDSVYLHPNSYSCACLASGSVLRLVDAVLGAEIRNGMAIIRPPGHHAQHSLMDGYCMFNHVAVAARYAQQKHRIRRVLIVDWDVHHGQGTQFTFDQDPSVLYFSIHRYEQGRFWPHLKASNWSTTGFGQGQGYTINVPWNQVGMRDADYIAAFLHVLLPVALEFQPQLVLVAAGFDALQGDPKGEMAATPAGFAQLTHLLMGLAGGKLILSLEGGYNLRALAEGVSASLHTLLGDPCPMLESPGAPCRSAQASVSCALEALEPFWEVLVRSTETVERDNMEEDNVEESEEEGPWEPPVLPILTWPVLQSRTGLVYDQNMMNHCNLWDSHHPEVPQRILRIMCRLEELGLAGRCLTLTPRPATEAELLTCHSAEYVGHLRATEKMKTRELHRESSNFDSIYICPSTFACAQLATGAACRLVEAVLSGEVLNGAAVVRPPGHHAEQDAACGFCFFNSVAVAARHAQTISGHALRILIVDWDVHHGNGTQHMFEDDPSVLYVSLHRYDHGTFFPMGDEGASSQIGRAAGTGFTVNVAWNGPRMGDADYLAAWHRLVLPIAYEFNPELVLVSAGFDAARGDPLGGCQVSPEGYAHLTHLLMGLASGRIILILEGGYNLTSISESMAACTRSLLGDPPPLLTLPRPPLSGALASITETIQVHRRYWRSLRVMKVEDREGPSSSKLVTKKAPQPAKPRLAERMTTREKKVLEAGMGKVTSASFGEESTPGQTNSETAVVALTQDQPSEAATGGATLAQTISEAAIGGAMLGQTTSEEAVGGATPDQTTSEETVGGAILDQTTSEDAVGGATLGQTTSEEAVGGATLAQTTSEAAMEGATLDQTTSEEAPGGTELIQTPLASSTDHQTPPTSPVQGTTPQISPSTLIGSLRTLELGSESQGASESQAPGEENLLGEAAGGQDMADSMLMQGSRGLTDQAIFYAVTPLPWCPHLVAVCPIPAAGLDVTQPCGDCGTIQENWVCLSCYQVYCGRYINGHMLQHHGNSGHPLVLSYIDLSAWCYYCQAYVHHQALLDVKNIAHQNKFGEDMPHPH

Human HDAC1 = molecular target: T2, Human HDAC1 (Homo sapiens, UniProt Q13547); test: as above; details: read-out: IC50 (nM) HDAC 1
T2 construct: full length with C-terminal His-tag and C-terminal FLAG-tag; His-tag (C); FLAG-tag (C); made in house
T2 sequence (Q13547 whole entry): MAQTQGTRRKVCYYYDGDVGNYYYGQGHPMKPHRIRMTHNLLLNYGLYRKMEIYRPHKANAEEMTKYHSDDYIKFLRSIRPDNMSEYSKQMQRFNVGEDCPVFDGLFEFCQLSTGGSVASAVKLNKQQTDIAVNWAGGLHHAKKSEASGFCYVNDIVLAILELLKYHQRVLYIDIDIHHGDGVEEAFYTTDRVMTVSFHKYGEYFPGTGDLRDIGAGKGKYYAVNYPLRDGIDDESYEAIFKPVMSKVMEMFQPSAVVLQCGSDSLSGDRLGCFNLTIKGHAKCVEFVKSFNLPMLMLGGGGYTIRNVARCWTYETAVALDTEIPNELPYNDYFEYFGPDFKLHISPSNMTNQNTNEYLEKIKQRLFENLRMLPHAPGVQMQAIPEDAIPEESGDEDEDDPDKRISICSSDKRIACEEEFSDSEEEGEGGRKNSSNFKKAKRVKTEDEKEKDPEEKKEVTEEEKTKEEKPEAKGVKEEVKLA

[3] = Group 2: Bortezomib 0.5 mg/kg i.v. twice weekly

Group mean at day 26 (weight, clinical signs) [1, 3]: 98.5
SMILES: CC(C)C[C@H](NC(=O)[C@H](Cc1ccccc1)NC(=O)c1cnccn1)B(O)O [Bortezomib]
% T/C value versus vehicle (RPMI8226 tumours; [3]): 67.8%
Mean tumour volume, Group mean at day 19 (RPMI8226 tumours; [3]): 984 mm³

weight change during the study ([1]; bortezomib combinations): no significant weight change
SMILES: O=C(NO)c1ccc(CN(c2cnccn2)c2cnccn2)cc1 [Example GG, 4-{[Bis(pyrazin-2-yl)amino]methyl}-N-hydroxybenzamide]
expression of acetylated tubulin in tumour tissue (acetylated tubulin): increased expression
levels of secreted granzyme-B, IFNγ, IL-10, IL-17A, IL-2, IL-6 and TNFα [2]: increased
control of tumour (RPMI8226 tumours; Group 4 and 5 (with bortezomib), after 8 days of treatment): significant control of tumour

IC50 (Recombinant human HDAC6): ≤ 500 nM
IC50 (Human HDAC1): 1000 to 10000 nM
SMILES: CNc1cc(-c2ccnc(N(Cc3ccc(C(=O)NO)cc3)c3cnccn3)c2)ccn1 [Example TT, N-hydroxy-4-({[2′-(methylamino)-[4,4′-bipyridine]-2-yl](pyrazin-2-yl)amino}methyl)benzamide]

IC50 (Recombinant human HDAC6): ≤ 500 nM
IC50 (Human HDAC1): 1000 to 10000 nM
SMILES: O=C(NO)c1ccc(CN(c2cnccn2)c2cc(-c3ccncc3)ccn2)cc1 [Example UU, 4-[({[4,4′-bipyridine]-2-yl}(pyrazin-2-yl)amino)methyl]-N-hydroxybenzamide]
